# Test system: Pseudomonas aeruginosa strain 6077
# Experiment: Lethal pneumonia challenge in BALB/c mice
# Type: in vivo
# Conditions: MEM 2.3 mg/kg alone or DMAb-DVSF3 100 μg, lethal PA 6077
# Description: The unrelated dengue virus DMAb-DVSF3^20 was included as a control. A fourth group of animals received an intraperitoneal (IP) injection of purified protein IgG ABC123 (2 mg/kg) on day −1 before challenge. […] Animals were monitored for 6 days following intranasal challenge for survival as described in^16. Briefly, animals were anesthetized with ketamine and xylazine followed by intranasal administration of the bacterial inoculum contained in 0.05 ml. […] IL-1β, IL-6 and KC/GRO were quantified from the supernatant of lung homogenates using a multiplex kit (Meso Scale Diagnostics) according to the manufactures instructions. For DMAb and meropenem (MEM) combination experiments, MEM was administered subcutaneously 4 hours after infection.
structure (smiles),measurement,value
"C[C@@H](O)[C@H]1C(=O)N2C(C(=O)O)=C(S[C@@H]3CN[C@H](C(=O)N(C)C)C3)[C@H](C)[C@H]12 [MEM, meropenem, reference compound]","survival, DMAb and meropenem combination experiment",did not survive

# Reference: US12492243B2, “DNA antibody constructs for use against Pseudomonas aeruginosa” (priority 2016, dated 2025)
